# Experimental data taken from US20240309003A1, “HETEROCYCLIC COMPOUNDS AS TRIGGERING RECEPTOR EXPRESSED ON MYELOID CELLS 2 AGONISTS AND METHODS OF USE” (Vigil Neuroscience, Inc., priority 2021, published 2024).
# Biological target: T1, human TREM2 (Homo sapiens, UniProt Q9NZC2)
# T1 construct: expressed in transfected cells; host or cells: HEK293T
# Experiment: TREM2 agonist potency by cellular phosphorylation of Syk (AlphaLisa) in HEK293T-hTREM2 cells
# Type: cell-based
# Conditions: HEK293 cells expressing human TREM2 and DAP12, Table D
# Method in brief: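 Agonist EC50 from a variable-slope four-parameter fit of % activation, based on AlphaLisa phospho-Syk levels in lysates. Cells: HEK293T-hTREM2 (with DAP12), treated 45 min at room temperature with compound in assay buffer.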
# T1 sequence (Q9NZC2 19-230): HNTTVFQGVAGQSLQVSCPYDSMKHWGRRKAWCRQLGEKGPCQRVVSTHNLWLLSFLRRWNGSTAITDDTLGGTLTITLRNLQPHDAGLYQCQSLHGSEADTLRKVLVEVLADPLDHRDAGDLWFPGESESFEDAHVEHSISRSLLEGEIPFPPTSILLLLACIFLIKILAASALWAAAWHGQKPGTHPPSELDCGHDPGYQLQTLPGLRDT
# T1 sequence (O43914 22-113 partner): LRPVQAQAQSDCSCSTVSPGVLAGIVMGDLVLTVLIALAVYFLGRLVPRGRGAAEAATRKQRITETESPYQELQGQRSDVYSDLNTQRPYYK
row,EC50,Compound
1,0.05 to 0.5 µM,"COc1ccc([C@@H]2C[C@H](c3nc(-c4ccc(F)cc4F)c4nc(C)c(C)nc4n3)CCO2)cn1 [Example 162, 4-(2,4-difluorophenyl)-2-((2S,4R)-2-(6-methoxypyridin-3-yl)tetrahydro-2H-pyran-4-yl)-6,7-dimethylpteridine]"
2,0.05 to 0.5 µM,"COc1ccc([C@H]2C[C@@H](c3nc(-c4ccc(F)cc4F)c4nc(C)c(C)nc4n3)CCO2)cn1 [Example 163, 4-(2,4-difluorophenyl)-2-((2R,4S)-2-(6-methoxypyridin-3-yl)tetrahydro-2H-pyran-4-yl)-6,7-dimethylpteridine]"
3,0.5 to 3 µM,"COc1cccc([C@@H]2C[C@H](c3nc(-c4ccc(F)cc4F)c4nc(C)c(C)nc4n3)CCO2)n1 [Example 164, 4-(2,4-difluorophenyl)-2-((2S,4R)-2-(6-methoxypyridin-2-yl)tetrahydro-2H-pyran-4-yl)-6,7-dimethylpteridine]"
4,0.05 to 0.5 µM,"COc1cccc([C@H]2C[C@@H](c3nc(-c4ccc(F)cc4F)c4nc(C)c(C)nc4n3)CCO2)n1 [Example 165, 4-(2,4-difluorophenyl)-2-((2R,4S)-2-(6-methoxypyridin-2-yl)tetrahydro-2H-pyran-4-yl)-6,7-dimethylpteridine]"
5,0.05 to 0.5 µM,"Cc1nc2nc(C3CCOC(c4cc(C5CC5)n[nH]4)C3)nc(-c3ccc(F)cc3F)c2nc1C (stereo not shown) [Example 166, 2-(2-(3-cyclopropyl-1H-pyrazol-5-yl)tetrahydro-2H-pyran-4-yl)-4-(2,4-difluorophenyl)-6,7-dimethylpteridine]"
6,0.05 to 0.5 µM,"Cc1nc2nc(C3CCOC(c4cn[nH]c4)C3)nc(-c3ccc(F)cc3F)c2nc1C (stereo not shown) [Example 167, 2-(2-(1H-pyrazol-4-yl)tetrahydro-2H-pyran-4-yl)-4-(2,4-difluorophenyl)-6,7-dimethylpteridine]"
7,0.05 to 0.5 µM,Cc1nc2nc(C3C[C@@H](C)O[C@@H](c4cn[nH]c4)C3)nc(-c3ccc(F)cc3F)c2nc1C (stereo partly shown) [Example 168]
8,0.5 to 3 µM,Cc1nc2nc(C3CCOC(c4nc(C5CC5)n[nH]4)C3)nc(-c3ccc(F)cc3F)c2nc1C (stereo not shown) [Example 169]
9,0.05 to 0.5 µM,"[2H]C1([2H])C[C@H](c2nc(-c3ccc(F)cc3F)c3nc(C)c(C)nc3n2)C[C@H](c2cnn(C3CC3)c2)O1 [Example 171, 2-((2R,4S)-2-(1-cyclopropyl-1H-pyrazol-4-yl)tetrahydro-2H-pyran-4-yl-6,6-d2)-4-(2,4-difluorophenyl)-6,7-dimethylpteridine]"
10,3 to 100 µM,"[2H]C([2H])([2H])c1nc2nc([C@@H]3CCO[C@H](c4cnn(C([2H])([2H])[2H])c4)C3)nc(-c3ccc(C)cc3)c2nc1C([2H])([2H])[2H] [Example 172, 6,7-bis(methyl-d3)-2-((2S,4R)-2-(1-(methyl-d3)-1H-pyrazol-4-yl)tetrahydro-2H-pyran-4-yl)-4-(p-tolyl)pteridine]"
11,0.05 to 0.5 µM,"[2H]C([2H])([2H])c1nc2nc([C@H]3CCO[C@@H](c4cnn(C([2H])([2H])[2H])c4)C3)nc(-c3ccc(C)cc3)c2nc1C([2H])([2H])[2H] [Example 173, 6,7-bis(methyl-d3)-2-((2R,4S)-2-(1-(methyl-d3)-1H-pyrazol-4-yl)tetrahydro-2H-pyran-4-yl)-4-(p-tolyl)pteridine]"
12,3 to 100 µM,"[2H]C([2H])([2H])c1ccc(-c2nc([C@@H]3CCO[C@H](c4cnn(C([2H])([2H])[2H])c4)C3)nc3nc(C([2H])([2H])[2H])c(C([2H])([2H])[2H])nc23)cc1 [Example 174, 6,7-bis(methyl-d3)-2-((2S,4R)-2-(1-(methyl-d3)-1H-pyrazol-4-yl)tetrahydro-2H-pyran-4-yl)-4-(4-(methyl-d3)phenyl)pteridine]"
13,0.05 to 0.5 µM,"[2H]C([2H])([2H])c1ccc(-c2nc([C@H]3CCO[C@@H](c4cnn(C([2H])([2H])[2H])c4)C3)nc3nc(C([2H])([2H])[2H])c(C([2H])([2H])[2H])nc23)cc1 [Example 175, 6,7-bis(methyl-d3)-2-((2R,4S)-2-(1-(methyl-d3)-1H-pyrazol-4-yl)tetrahydro-2H-pyran-4-yl)-4-(4-(methyl-d3)phenyl)pteridine]"
14,< 0.05 µM,Cc1nc2nc(N3C[C@@H](C)O[C@@H](c4cnn(C5CC5)c4)C3)nc(-c3ccnc(C(F)(F)F)c3)c2nc1C [Example 178]
15,< 0.05 µM,"[2H]C1(n2cc([C@H]3C[C@@H](c4nc(-c5ccc(Cl)cc5F)c5nc(C)c(C)nc5n4)CCO3)cn2)CC1 [Example 179, 4-(4-chloro-2-fluorophenyl)-2-((2R,4S)-2-(1-(cyclopropyl-1-d)-1H-pyrazol-4-yl)tetrahydro-2H-pyran-4-yl)-6,7-dimethylpteridine]"
16,< 0.05 µM,"Cc1nc2nc([C@H]3CCO[C@@H](c4cnn(C5CC5)c4)C3)nc(C3CCC(F)(F)CC3)c2nc1C [Example 180, 2-((2R,4S)-2-(1-cyclopropyl-1H-pyrazol-4-yl)tetrahydro-2H-pyran-4-yl)-4-(4,4-difluorocyclohexyl)-6,7-dimethylpteridine]"

row,EC50,Compound
1,< 0.05 µM,"[2H]C([2H])([2H])c1nc2nc([C@H]3CCO[C@@H](c4cnn(C5CC5)c4)C3)nc(-c3ccc(Cl)cc3F)c2nc1C([2H])([2H])[2H] [Example 181, 4-(4-chloro-2-fluorophenyl)-2-((2R,4S)-2-(1-cyclopropyl-1H-pyrazol-4-yl)tetrahydro-2H-pyran-4-yl)-6,7-bis(methyl-d3)pteridine]"
2,< 0.05 µM,"[2H][C@]1(c2cnn(C3CC3)c2)C[C@@H](c2nc(-c3ccc(F)cc3F)c3nc(C)c(C)nc3n2)CCO1 [Example 182, 2-((2R,4S)-2-(1-cyclopropyl-1H-pyrazol-4-yl)tetrahydro-2H-pyran-4-yl-2-d)-4-(2,4-difluorophenyl)-6,7-dimethylpteridine]"
3,< 0.05 µM,"Cc1cc([C@H]2C[C@@H](c3cc(-c4ccc(Cl)cc4F)c4cc(C)c(C)nc4n3)CCO2)ccn1 [Example 184, 5-(4-chloro-2-fluorophenyl)-2,3-dimethyl-7-((2R,4S)-2-(2-methylpyridin-4-yl)tetrahydro-2H-pyran-4-yl)-1,8-naphthyridine]"
4,0.5 to 3 µM,"Cc1cc([C@@H]2C[C@H](c3cc(-c4ccc(Cl)cc4F)c4cc(C)c(C)nc4n3)CCO2)ccn1 [Example 185, 5-(4-chloro-2-fluorophenyl)-2,3-dimethyl-7-((2S,4R)-2-(2-methylpyridin-4-yl)tetrahydro-2H-pyran-4-yl)-1,8-naphthyridine]"
5,0.5 to 3 µM,"Cc1cc([C@H]2C[C@@H](c3cc(-c4ccc(Cl)c(F)c4F)c4cc(C)c(C)nc4n3)CCO2)ccn1 [Example 186, 5-(4-chloro-2,3-difluorophenyl)-2,3-dimethyl-7-((2R,4S)-2-(2-methylpyridin-4-yl)tetrahydro-2H-pyran-4-yl)-1,8-naphthyridine]"
6,< 0.05 µM,"Cc1cc([C@@H]2C[C@H](c3cc(-c4ccc(Cl)c(F)c4F)c4cc(C)c(C)nc4n3)CCO2)ccn1 [Example 187, 5-(4-chloro-2,3-difluorophenyl)-2,3-dimethyl-7-((2S,4R)-2-(2-methylpyridin-4-yl)tetrahydro-2H-pyran-4-yl)-1,8-naphthyridine]"
7,< 0.05 µM,"[2H]C1([2H])C[C@H](c2nc(-c3ccc(Cl)cc3F)c3nc(C)c(C)nc3n2)C[C@H](c2cnn(C3CC3)c2)O1 [Example 188, 4-(4-chloro-2-fluorophenyl)-2-((2R,4S)-2-(1-cyclopropyl-1H-pyrazol-4-yl)tetrahydro-2H-pyran-4-yl-6,6-d2)-6,7-dimethylpteridine]"
8,0.05 to 0.5 µM,"[2H]C1([2H])C[C@@H](c2nc(-c3ccc(Cl)cc3F)c3nc(C)c(C)nc3n2)C[C@@H](c2cnn(C3CC3)c2)O1 [Example 189, 4-(4-chloro-2-fluorophenyl)-2-((2S,4R)-2-(1-cyclopropyl-1H-pyrazol-4-yl)tetrahydro-2H-pyran-4-yl-6,6-d2)-6,7-dimethylpteridine]"
9,< 0.05 µM,"[2H]C1([2H])C[C@H](c2nc(-c3ccc(F)cc3F)c3nc(C)c(C)nc3n2)C[C@]([2H])(c2cnn(C3CC3)c2)O1 [Example 190, 2-((2R,4S)-2-(1-cyclopropyl-1H-pyrazol-4-yl)tetrahydro-2H-pyran-4-yl-2,6,6-d3)-4-(2,4-difluorophenyl)-6,7-dimethylpteridine]"
10,< 0.05 µM,"[2H]C1([2H])C[C@H](c2nc(-c3ccc(Cl)cc3F)c3nc(C)c(C)nc3n2)C[C@]([2H])(c2cnn(C3CC3)c2)O1 [Example 192, 4-(4-chloro-2-fluorophenyl)-2-((2R,4S)-2-(1-cyclopropyl-1H-pyrazol-4-yl)tetrahydro-2H-pyran-4-yl-2,6,6-d3)-6,7-dimethylpteridine]"
11,0.05 to 0.5 µM,"[2H]C1([2H])C[C@@H](c2nc(-c3ccc(Cl)cc3F)c3nc(C)c(C)nc3n2)C[C@@]([2H])(c2cnn(C3CC3)c2)O1 [Example 193, 4-(4-chloro-2-fluorophenyl)-2-((2S,4R)-2-(1-cyclopropyl-1H-pyrazol-4-yl)tetrahydro-2H-pyran-4-yl-2,6,6-d3)-6,7-dimethylpteridine]"
12,< 0.05 µM,"Cc1nc2nc(N3CCOC(c4cc[nH]c(=O)c4)C3)nc(-c3ccc(C(F)(F)F)nc3)c2nc1C (stereo not shown) [Example 194, 4-(4-(6,7-dimethyl-4-(6-(trifluoromethyl)pyridin-3-yl)pteridin-2-yl)morpholin-2-yl)pyridin-2(1H)-one]"
13,< 0.05 µM,"Cc1nc2nc(N3CCO[C@@H](c4cc[nH]c(=O)c4)C3)nc(-c3ccc(C(F)(F)F)nc3)c2nc1C [Example 195, (S)-4-(4-(6,7-dimethyl-4-(6-(trifluoromethyl)pyridin-3-yl)pteridin-2-yl)morpholin-2-yl)pyridin-2(1H)-one]"
14,0.05 to 0.5 µM,"Cc1nc2nc(N3CCO[C@H](c4cc[nH]c(=O)c4)C3)nc(-c3ccc(C(F)(F)F)nc3)c2nc1C [Example 196, (R)-4-(4-(6,7-dimethyl-4-(6-(trifluoromethyl)pyridin-3-yl)pteridin-2-yl)morpholin-2-yl)pyridin-2(1H)-one]"
15,< 0.05 µM,"Cc1nc2nc(N3CCOC(c4cc[nH]c(=O)c4)C3)nc(C34CC(C(F)(F)F)(C3)C4)c2nc1C (stereo not shown) [Example 197, 4-(4-(6,7-dimethyl-4-(3-(trifluoromethyl)bicyclo[1.1.1]pentan-1-yl)pteridin-2-yl)morpholin-2-yl)pyridin-2(1H)-one]"
